In brackets after ≈: the same amount, converted by molar mass.
Experiments:
Vero cells = experiment: Cytotoxicity to mammalian cells (Vero); assay type: cell-based; settings: Vero cells; NC = No Cytotoxicity observed up to 5 μg/ml
Protocol: (§1) All organisms were obtained from the American Type Culture Collection (Manassas, Va.). Susceptibility testing was performed using a modified version of the NCCLS methods [a) National Committee for Clinical Laboratory Standards. 2000. Methods for dilution antimicrobial susceptibility tests for bacteria that grow aerobically. M7-A5. […] Approved standard M27-A. National Committee for Clinical Laboratory Standards, Wayne, Pa. c) National Committee for Clinical Laboratory Standards. 2000. Susceptibility testing of mycobacteria, nocardia, and other aerobic actinomycetes, 2nd ed. Tentative standard M24- T2. […] Briefly, samples (dissolved in DMSO) were serially diluted by using 0.9% saline and transferred in duplicate to 96-well microplates. Microbial inocula were prepared after comparison of the absorbance (at 630 nm) of cell suspensions to the 0.5 McFarland standard and dilution of the suspensions in broth (Sabouraud dextrose and cation-adjusted Mueller-Hinton broth [Difco] for the fungi and bacteria, respectively, and 5% Alamar blue [BioSource international] in Middlebrook 7H9 broth with oleic acid-albumin-dextrose-catalase enrichment for M intracellulare) to afford recommended inoculum sizes. Microbial inocula were added to the samples to achieve a final volume of 200 μl and final sample concentrations starting with 100 μg/ml. Growth, solvent, and medium controls were included on each test plate. […] Antimalarial and cytotoxicity testing were conducted in a similar manner as previously reported [a) Muhammad, 1.; Bedir, E.; Khan, S. I.; Tekwani, B. L.; Khan, I. A.; Takamatsu, S.; Pelletier, 1.; Walker, L. A. J Nat Prod.

C. krusei ATCC 6258 = experiment: Antimicrobial susceptibility testing, Ck; assay type: cell-based, Candida krusei; settings: Pichia kudriavzevii, ATCC6258, read-out: IC50 Ck
Protocol: Compounds were evaluated in vitro against a panel of microorganisms, including Candida albicans ATCC 90028 (Ca), C. krusei ATCC 6258 (Ck), Cryptococcus neoformans ATCC 90113 (Cn), Staphylococcus aureus ATCC 29213 (Sa), methicillin-resistant S. aureus ATCC 43300 (MRSA), Pseudomonas aeruginosa ATCC 27853 (Pa), Aspergilllus fumigatus ATCC 90906 (Aj), and Mycobacterium intracellulare ATCC 23068 (Mi) as previously reported [Guoyi, M.; Khan, S.; Jacob, M. R; Tekwani, B. L.; Li, Z.; Pasco, D. S.; Walker, L. A.; Khan, 1. A.; Antimicrob Agents Chemother, 2004, 48, 4450-4452]. All organisms were obtained from the American Type Culture Collection (Manassas, Va.). Susceptibility testing was performed using a modified version of the NCCLS methods [a) National Committee for Clinical Laboratory Standards. 2000. Methods for dilution antimicrobial susceptibility tests for bacteria that grow aerobically. M7-A5. National Committee for Clinical Laboratory Standards, Wayne, Pa. b) National Committee for Clinical Laboratory Standards, 1997, Reference method for broth dilution antifungal susceptibility testing of yeasts. Approved standard M27-A. National Committee for Clinical Laboratory Standards, Wayne, Pa. c) National Committee for Clinical Laboratory Standards. 2000. Susceptibility testing of mycobacteria, nocardia, and other aerobic actinomycetes, 2nd ed. Tentative standard M24- T2. […] Microbial inocula were prepared after comparison of the absorbance (at 630 nm) of cell suspensions to the 0.5 McFarland standard and dilution of the suspensions in broth (Sabouraud dextrose and cation-adjusted Mueller-Hinton broth [Difco] for the fungi and bacteria, respectively, and 5% Alamar blue [BioSource international] in Middlebrook 7H9 broth with oleic acid-albumin-dextrose-catalase enrichment for M intracellulare) to afford recommended inoculum sizes. […] The plates were read at either 630 nm or excitation and emission wavelengths of 544 and 590 nm (for Mi) prior to and after incubation. […]

[1] = system: methicillin-resistant S. aureus ATCC 43300; experiment: Antimicrobial susceptibility testing, MRSA; assay type: cell-based, Staphylococcus aureus; settings: Staphylococcus aureus, read-out: IC50 MRSA
Protocol: (§2) Compounds were evaluated in vitro against a panel of microorganisms, including Candida albicans ATCC 90028 (Ca), C. krusei ATCC 6258 (Ck), Cryptococcus neoformans ATCC 90113 (Cn), Staphylococcus aureus ATCC 29213 (Sa), methicillin-resistant S. aureus ATCC 43300 (MRSA), Pseudomonas aeruginosa ATCC 27853 (Pa), Aspergilllus fumigatus ATCC 90906 (Aj), and Mycobacterium intracellulare ATCC 23068 (Mi) as previously reported [Guoyi, M.; Khan, S.; Jacob, M. R; Tekwani, B. L.; Li, Z.; Pasco, D. S.; Walker, L. A.; Khan, 1. A.; Antimicrob Agents Chemother, 2004, 48, 4450-4452]. All organisms were obtained from the American Type Culture Collection (Manassas, Va.). Susceptibility testing was performed using a modified version of the NCCLS methods [a) National Committee for Clinical Laboratory Standards. 2000. Methods for dilution antimicrobial susceptibility tests for bacteria that grow aerobically. M7-A5. National Committee for Clinical Laboratory Standards, Wayne, Pa. b) National Committee for Clinical Laboratory Standards, 1997, Reference method for broth dilution antifungal susceptibility testing of yeasts. Approved standard M27-A. National Committee for Clinical Laboratory Standards, Wayne, Pa. c) National Committee for Clinical Laboratory Standards. 2000. Susceptibility testing of mycobacteria, nocardia, and other aerobic actinomycetes, 2nd ed. Tentative standard M24- T2. National Committee for Clinical Laboratory Standards, Wayne, Pa.] for all organisms except for M intracellulare, for which the modified Alamar blue procedure described by Franzblau et al [1998. J Clin Microbiol, 36, 362-366] was followed. Briefly, samples (dissolved in DMSO) were serially diluted by using 0.9% saline and transferred in duplicate to 96-well microplates. Microbial inocula were prepared after comparison of the absorbance (at 630 nm) of cell suspensions to the 0.5 McFarland standard and dilution of the suspensions in broth (Sabouraud dextrose and cation-adjusted Mueller-Hinton broth [Difco] for the fungi and bacteria, respectively, and 5% Alamar blue [BioSource international] in Middlebrook 7H9 broth with oleic acid-albumin-dextrose-catalase enrichment for M intracellulare) to afford recommended inoculum sizes. Microbial inocula were added to the samples to achieve a final volume of 200 μl and final sample concentrations starting with 100 μg/ml. Growth, solvent, and medium controls were included on each test plate. The plates were read at either 630 nm or excitation and emission wavelengths of 544 and 590 nm (for Mi) prior to and after incubation. Percent growth was calculated and plotted with the concentration tested to afford the concentration that inhibits 50% of growth (IC50). […]

[2] = system: Mycobacterium intracellulare ATCC 23068; experiment: Modified Alamar blue procedure, Mi; assay type: cell-based; settings: ATCC23068, read-out: IC50 Mi
Protocol: as §2

[3] = system: Aspergillus fumigatus ATCC 90906; experiment: Antimicrobial susceptibility testing, Af; assay type: cell-based; settings: ATCC90906, read-out: IC50 Af
Protocol: as §2

[4] = system: Plasmodium falciparum W2 Clone; experiment: Antimalarial testing, W2 clone; assay type: cell-based
Protocol: (§3) Compounds were evaluated in vitro against a panel of microorganisms, including Candida albicans ATCC 90028 (Ca), C. krusei ATCC 6258 (Ck), Cryptococcus neoformans ATCC 90113 (Cn), Staphylococcus aureus ATCC 29213 (Sa), methicillin-resistant S. aureus ATCC 43300 (MRSA), Pseudomonas aeruginosa ATCC 27853 (Pa), Aspergilllus fumigatus ATCC 90906 (Aj), and Mycobacterium intracellulare ATCC 23068 (Mi) as previously reported [Guoyi, M.; Khan, S.; Jacob, M. R; Tekwani, B. L.; Li, Z.; Pasco, D. S.; Walker, L. A.; Khan, 1. A.; Antimicrob Agents Chemother, 2004, 48, 4450-4452]. All organisms were obtained from the American Type Culture Collection (Manassas, Va.). Susceptibility testing was performed using a modified version of the NCCLS methods [a) National Committee for Clinical Laboratory Standards. 2000. Methods for dilution antimicrobial susceptibility tests for bacteria that grow aerobically. M7-A5. National Committee for Clinical Laboratory Standards, Wayne, Pa. b) National Committee for Clinical Laboratory Standards, 1997, Reference method for broth dilution antifungal susceptibility testing of yeasts. Approved standard M27-A. National Committee for Clinical Laboratory Standards, Wayne, Pa. c) National Committee for Clinical Laboratory Standards. 2000. Susceptibility testing of mycobacteria, nocardia, and other aerobic actinomycetes, 2nd ed. Tentative standard M24- T2. National Committee for Clinical Laboratory Standards, Wayne, Pa.] for all organisms except for M intracellulare, for which the modified Alamar blue procedure described by Franzblau et al [1998. J Clin Microbiol, 36, 362-366] was followed. Briefly, samples (dissolved in DMSO) were serially diluted by using 0.9% saline and transferred in duplicate to 96-well microplates. Microbial inocula were prepared after comparison of the absorbance (at 630 nm) of cell suspensions to the 0.5 McFarland standard and dilution of the suspensions in broth (Sabouraud dextrose and cation-adjusted Mueller-Hinton broth [Difco] for the fungi and bacteria, respectively, and 5% Alamar blue [BioSource international] in Middlebrook 7H9 broth with oleic acid-albumin-dextrose-catalase enrichment for M intracellulare) to afford recommended inoculum sizes. Microbial inocula were added to the samples to achieve a final volume of 200 μl and final sample concentrations starting with 100 μg/ml. Growth, solvent, and medium controls were included on each test plate. The plates were read at either 630 nm or excitation and emission wavelengths of 544 and 590 nm (for Mi) prior to and after incubation. Percent growth was calculated and plotted with the concentration tested to afford the concentration that inhibits 50% of growth (IC50). Antimalarial and cytotoxicity testing were conducted in a similar manner as previously reported [a) Muhammad, 1.; Bedir, E.; Khan, S. I.; Tekwani, B. L.; Khan, I. A.; Takamatsu, S.; Pelletier, 1.; Walker, L. A. J Nat Prod. 2004, 67, 772-7. b) Muhammad, 1.; Dunbar, D. C.; Khan, S. 1.; Tekwani, B. L.; Bedir, E.; Takamatsu, S.; Ferreira, D, Walker L A., J Nat Prod. 2003, 66, 962-7].

[5] = system: Plasmodium falciparum D6 Clone; experiment: Antimalarial testing, D6 clone; assay type: cell-based
Protocol: as §1

[6] = system: Cryptococcus neoformans ATCC 90113; experiment: Antifungal susceptibility testing (modified NCCLS), Cn; assay type: cell-based
Protocol: as §3

[7] = system: Candida albicans ATCC 90028; experiment: Antifungal susceptibility testing (modified NCCLS), Ca; assay type: cell-based
Protocol: as §3

Question: Which results are given for `Cn1c2c3ccccc3nc-2cc2ccccc21` [Compound 2b, cryptolepine, reference compound]?
Answer: Cytotoxicity (Vero) TC50 (Vero cells): 2.4 µg/mL; IC50 (C. krusei ATCC 6258): 4.5 µg/mL (≈ 19.4 µM); IC50 [1]: 20 µg/mL (≈ 86.1 µM); IC50 [2]: 15 µg/mL (≈ 64.6 µM); IC50 [3]: > 20 µg/mL; IC50 ([4]; Plasmodium falciparum, W2, read-out: Plasmodium falciparum IC50 Pf (W2)): 0.13 µg/mL (≈ 0.56 µM); SI (W2) ([4]; SI = IC50 (vero cells)/IC50 (Pf), W2 Clone): 18.5; IC50 ([5]; Plasmodium falciparum, D6, read-out: Plasmodium falciparum IC50 Pf (D6)): 0.044 µg/mL (≈ 0.189 µM); SI (D6) ([5]; SI = IC50 (vero cells)/IC50 (Pf), D6 Clone): 54

Question: What does the source list for `Cn1c2ccccc2c2c1cc1ccccc1[n+]2CCCCCc1ccccc1.[Br-]` [Compound 7b]?
Answer: IC50 Cn ([6]; NA not defined in Table 1): 4.3 µg/mL; IC50 Ca ([7]; NA not defined in Table 1): 4.3 µg/mL

Question: For `C[n+]1c(-c2ccccc2)ccc2ccccc21` [Compound 8a], which melting point is on record?
Answer: 196 to 198 °C

Question: What about the IC50 ([6]; ATCC90113, read-out: IC50 Cn) of the same molecule?
Answer: 43 µg/mL

Question: And the IC50 ([7]; ATCC90028, read-out: IC50 Ca)?
Answer: 180 µg/mL

— patent US8158646B2, “Antifungal and antiparasitic indoloquinoline derivates” (Florida Agricultural and Mechanical University, priority 2006, dated 2012)
